The record followed here is PubChem BioAssay (NCI).

Test systems include SNB-19 CNS; 786-0 renal; DU-145 prostate; SF-295 CNS; SR leukemia; SF-268 CNS; PC-3 prostate; RXF 393 renal; LOX IMVI melanoma; NCI-H460 lung.
Test in all cases: NCI-60 cell line screen, 48 h

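Compound exposure: 48 hours, 5 concentrations, 96-well plates. The concentration for 50% growth inhibition is given as GI50. TGI: concentration producing complete growth inhibition.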 Where only a bound is given, the exact number is not on record here.

With `Cn1cc(-c2csc(-c3cccc(F)c3)n2)c2cccnc21`, the GI50 is 20.1 µM with SNB-19 CNS; 16.1 µM in the experiment with 786-0 renal; 18.2 µM with DU-145 prostate; 14.9 µM in the experiment with SF-295 CNS; 13.5 µM in the experiment with SR leukemia; 17.3 µM in the experiment on SF-268 CNS. The GI50 in the experiment with PC-3 prostate is 16.2 µM; in the experiment with RXF 393 renal it was 16 µM; in the experiment on LOX IMVI melanoma, 14.1 µM; with NCI-H460 lung, 17 µM. Moreover, the TGI in the experiment with SNB-19 CNS is 54.4 µM; in the experiment with 786-0 renal, 30.4 µM; in the experiment on DU-145 prostate, 32.1 µM; with SF-295 CNS, 33.7 µM; in the experiment on SR leukemia, over 100 µM; in the experiment with SF-268 CNS, 32.1 µM. Besides, the TGI was determined as 39.5 µM in the experiment on PC-3 prostate, 34.4 µM in the experiment on RXF 393 renal, 27.5 µM in the experiment on LOX IMVI melanoma and 34.7 µM in the experiment on NCI-H460 lung.

On to `COC(=O)[C@]12CCC(C)(C)C[C@H]1C1=CC[C@@H]3[C@@]4(C)C/C(=C/c5cccnc5)C(=O)C(C)(C)[C@@H]4CC[C@@]3(C)[C@]1(C)CC2`, for which the GI50 with SNB-19 CNS is 15.1 µM; in the experiment with 786-0 renal, 3.58 µM; with DU-145 prostate it was 8.86 µM; in the experiment on SF-295 CNS it was 9.67 µM; with SR leukemia, 4.52 µM; with SF-268 CNS, 11.8 µM. Also, the GI50 in the experiment on PC-3 prostate is 2.37 µM; in the experiment with RXF 393 renal, 4.25 µM; with LOX IMVI melanoma it was 4.63 µM; with NCI-H460 lung, 5.53 µM. Besides, the TGI with SNB-19 CNS was 77.4 µM; in the experiment on 786-0 renal it was 17.4 µM; in the experiment with DU-145 prostate, over 100 µM; in the experiment on SF-295 CNS it was 40.4 µM; with SR leukemia it was 93.6 µM; in the experiment on SF-268 CNS it was 54 µM. For the same compound, the TGI in the experiment on PC-3 prostate turned out to be 10.4 µM; in the experiment with RXF 393 renal it was 17.5 µM; in the experiment on LOX IMVI melanoma, 17.8 µM; in the experiment on NCI-H460 lung, 26.6 µM.

Turning to `COc1cc([C@@H]2c3cc4c(cc3C(O[C@@H]3O[C@@H]5CO[C@@H](c6cccs6)OC5[C@H](O)[C@H]3O)C3COC(=O)[C@@H]32)OCO4)cc(OC)c1O` (stereo partly specified), the GI50 is 0.0278 µM in the experiment with SNB-19 CNS; 0.0336 µM in the experiment on 786-0 renal; 0.0459 µM in the experiment on DU-145 prostate; 0.0224 µM in the experiment on SF-295 CNS; under 0.005 µM in the experiment with SR leukemia; 0.0693 µM in the experiment with SF-268 CNS. The GI50 in the experiment on PC-3 prostate is 0.51 µM; with RXF 393 renal, 0.105 µM; with LOX IMVI melanoma, 0.017 µM; with NCI-H460 lung it was under 0.005 µM. For the same compound, the TGI in the experiment with SNB-19 CNS came out at 17 µM; in the experiment with 786-0 renal it was 0.216 µM; in the experiment with DU-145 prostate, 0.369 µM; in the experiment with SF-295 CNS, 0.712 µM; with SR leukemia, 0.0249 µM; in the experiment with SF-268 CNS, 1.54 µM. Further, the TGI was determined as 32.9 µM with PC-3 prostate, 0.534 µM in the experiment with RXF 393 renal, 0.911 µM with LOX IMVI melanoma and 0.278 µM in the experiment on NCI-H460 lung.

On to `COc1ccc(OC(=O)O[C@H]2[C@H](O[C@H]3[C@@H](O)COC(O[C@H]4C[C@H]5[C@@H]6CC=C7C[C@@H](O)CC[C@]7(C)[C@H]6CC[C@]5(C)[C@H]4[C@H](C)C(=O)CCC(C)C)[C@@H]3OC(C)=O)OC[C@@H](O)[C@@H]2O)cc1` (stereo partly specified), for which the GI50 in the experiment on SNB-19 CNS is 0.0857 µM; in the experiment on 786-0 renal, under 0.01 µM; in the experiment on DU-145 prostate, 3.53 µM; in the experiment with SF-295 CNS it was under 0.01 µM; in the experiment with SR leukemia it was 0.0102 µM; with SF-268 CNS, 0.042 µM. Also, the GI50 is 0.0103 µM in the experiment on PC-3 prostate, under 0.01 µM in the experiment with RXF 393 renal, 0.0265 µM in the experiment on LOX IMVI melanoma and 0.0524 µM in the experiment with NCI-H460 lung. Besides, the TGI in the experiment on SNB-19 CNS turned out to be 6.56 µM; in the experiment with 786-0 renal, 3.81 µM; in the experiment on DU-145 prostate it was 22.7 µM; in the experiment with SF-295 CNS it was 0.0193 µM; in the experiment on SR leukemia, 21.4 µM; with SF-268 CNS, 6.99 µM. Also, the values for the TGI in the experiment with PC-3 prostate, in the experiment on LOX IMVI melanoma and in the experiment with NCI-H460 lung were 10.1 µM, 0.177 µM and 3.33 µM, respectively.

`COc1ccc(-c2nc(-c3nc4ccc(C)cc4[nH]3)c3ccccn23)cc1`: the GI50 with SNB-19 CNS was 2.97 µM; in the experiment on 786-0 renal it was 3.67 µM; in the experiment on DU-145 prostate, 2.85 µM; with SR leukemia it was 2.77 µM; with SF-268 CNS it was 2.8 µM; in the experiment on PC-3 prostate it was 1.88 µM. In addition, the GI50 in the experiment with RXF 393 renal was 7.73 µM; in the experiment on LOX IMVI melanoma it was 3.03 µM; with NCI-H460 lung, 2.28 µM. Besides, the TGI is over 100 µM in the experiment with SNB-19 CNS; over 100 µM in the experiment on 786-0 renal; over 100 µM in the experiment with DU-145 prostate; over 100 µM in the experiment on SR leukemia; over 100 µM in the experiment with SF-268 CNS; 7.68 µM in the experiment on PC-3 prostate. Further, the results for the TGI with RXF 393 renal, with LOX IMVI melanoma and in the experiment with NCI-H460 lung were over 100 µM, 7.73 µM and 6.11 µM, respectively.

As to `Cc1c2c(nn1-c1ccc(S(=O)(=O)/N=C3\SCC(=O)N3C(=O)c3ccccc3)cc1)-c1ccccc1CC2`, the GI50 in the experiment on 786-0 renal is 28.9 µM; in the experiment with DU-145 prostate, 38.6 µM; with SF-295 CNS, 21.6 µM; with SR leukemia, 69.9 µM; with SF-268 CNS, 44.6 µM; in the experiment with PC-3 prostate, 42.1 µM. In addition, the GI50 in the experiment on RXF 393 renal is 28.8 µM; with LOX IMVI melanoma, over 100 µM; in the experiment with NCI-H460 lung, 47.5 µM. The TGI is 77.9 µM with 786-0 renal; over 100 µM with DU-145 prostate; 58.2 µM with SF-295 CNS; over 100 µM with SR leukemia; over 100 µM in the experiment with SF-268 CNS; over 100 µM with PC-3 prostate. The results for the TGI in the experiment with RXF 393 renal, in the experiment on LOX IMVI melanoma and in the experiment on NCI-H460 lung were 77.5 µM, over 100 µM and over 100 µM, respectively.

Take `COc1ccc2cc(C(=O)/C=C/c3cccc(OC)c3OC)ccc2c1`: the GI50 with SNB-19 CNS was 15.6 µM; in the experiment with 786-0 renal it was 4.26 µM; in the experiment on DU-145 prostate it was 15.3 µM; in the experiment with SR leukemia, 2.88 µM; in the experiment on SF-268 CNS, 24.2 µM; with PC-3 prostate, 17.4 µM. The GI50 with RXF 393 renal is 3.76 µM; in the experiment on NCI-H460 lung, 18.3 µM. Besides, the TGI in the experiment with SNB-19 CNS was 33.5 µM; with 786-0 renal, 16.6 µM; in the experiment on DU-145 prostate it was 34.2 µM; in the experiment with SR leukemia it was over 100 µM; in the experiment on SF-268 CNS, 50.8 µM; in the experiment with PC-3 prostate, 46.1 µM. In addition, the TGI was 12.9 µM in the experiment on RXF 393 renal and 37.5 µM with NCI-H460 lung.
